Measurements from US6043275A, “3,7-dithiaprostanoic acid derivative” (Ono Pharmaceutical Co., Ltd., priority 1998, dated 2000).

Legend:
mouse EP3 α = target: T1, mouse EP3 α (Mus musculus, UniProt P30557); assay: Binding assay using cell expressing the prostanoid receptor subtypes (EP3α); conditions: more polar isomer; membrane fraction of CHO cell expressing mouse EP3α; [3H]-PGE2 2.5 nM; 1 hour, room temperature; pH 6.0; read-out: dissociation constant Ki (μM) EP3α
T1 construct: expressed in transfected cells; host or cells: CHO cells (membrane fraction)
T1 sequence (P30557 1-365): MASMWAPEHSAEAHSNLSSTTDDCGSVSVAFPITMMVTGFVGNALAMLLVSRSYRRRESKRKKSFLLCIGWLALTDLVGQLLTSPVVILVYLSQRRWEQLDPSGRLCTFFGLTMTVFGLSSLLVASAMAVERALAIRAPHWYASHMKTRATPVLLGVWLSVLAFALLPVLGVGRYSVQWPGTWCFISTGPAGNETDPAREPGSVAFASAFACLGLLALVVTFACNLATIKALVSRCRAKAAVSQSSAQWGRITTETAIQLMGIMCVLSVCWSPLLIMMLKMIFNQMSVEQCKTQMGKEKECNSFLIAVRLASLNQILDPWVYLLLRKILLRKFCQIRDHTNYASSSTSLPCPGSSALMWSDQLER
Procedure: For example, in a standard laboratory test, such effects of the compound of the present invention were confirmed by binding assay using cell expressing the prostanoid receptor subtypes. (i) Binding assay using cell expressing the prostanoid receptor subtypes
The preparation of membrane fraction was carried out according to the method of Sugimoto et al [J. Biol. Chem. 267, 6463-6466 (1 992)], using CHO cell expressing prostanoid receptor subtype (mouse EP3 α, EP4).
The standard assay mixture containing membrane fraction (0.5 mg/ml), [^3 H]-PGE2 in a final volume of 200 μl was incubated for 1 hour at room temperature. The reaction was terminated by addition of 3 ml of ice-cold buffer. The mixture was rapidly filtered through a glass filter (GF/B). The radioactivity associated with the filter was measured by liquid scintillation counter.
Kd and Bmax values were determined from Scatchard plots [Ann. N.Y. Acad. Sci., 51, 660 (1949)]. Non-specific binding was calculated as the amount bond in the presence of an excess (2.5 μM) of unlabeled PGE2. In the experiment for competition of specific [^3 H]-PGE2 binding by the compounds of the present invention, [^3 H]-PGE2 was added at a concentration of 2.5 nM and the compound of the present invention was added at a various concentration.
The following buffer was used in all reactions. Buffer: 10 mM potassium phosphate (pH 6.0), 1 mM EDTA, 10 mM MgCl2, 0.1 M NaCl
The dissociation constant (Ki) of each compound was calculated by the following equation.

mouse EP4 = target: T2, mouse EP4 (Mus musculus, UniProt P32240); assay: Binding assay using cell expressing the prostanoid receptor subtypes (EP4); conditions: more polar isomer; membrane fraction of CHO cell expressing mouse EP4; [3H]-PGE2 2.5 nM; 1 hour, room temperature; pH 6.0; read-out: dissociation constant Ki (μM) EP4
T2 construct: expressed in transfected cells; host or cells: CHO cells (membrane fraction)
Procedure: For example, in a standard laboratory test, such effects of the compound of the present invention were confirmed by binding assay using cell expressing the prostanoid receptor subtypes. (i) Binding assay using cell expressing the prostanoid receptor subtypes The preparation of membrane fraction was carried out according to the method of Sugimoto et al [J. Biol. […] The standard assay mixture containing membrane fraction (0.5 mg/ml), [^3 H]-PGE2 in a final volume of 200 μl was incubated for 1 hour at room temperature. The reaction was terminated by addition of 3 ml of ice-cold buffer. The mixture was rapidly filtered through a glass filter (GF/B). The radioactivity associated with the filter was measured by liquid scintillation counter. Kd and Bmax values were determined from Scatchard plots [Ann. N.Y. Acad. Sci., 51, 660 (1949)]. Non-specific binding was calculated as the amount bond in the presence of an excess (2.5 μM) of unlabeled PGE2. In the experiment for competition of specific [^3 H]-PGE2 binding by the compounds of the present invention, [^3 H]-PGE2 was added at a concentration of 2.5 nM and the compound of the present invention was added at a various concentration. The following buffer was used in all reactions. Buffer: 10 mM potassium phosphate (pH 6.0), 1 mM EDTA, 10 mM MgCl2, 0.1 M NaCl The dissociation constant (Ki) of each compound was calculated by the following equation.

T2 sequence (P32240 whole entry): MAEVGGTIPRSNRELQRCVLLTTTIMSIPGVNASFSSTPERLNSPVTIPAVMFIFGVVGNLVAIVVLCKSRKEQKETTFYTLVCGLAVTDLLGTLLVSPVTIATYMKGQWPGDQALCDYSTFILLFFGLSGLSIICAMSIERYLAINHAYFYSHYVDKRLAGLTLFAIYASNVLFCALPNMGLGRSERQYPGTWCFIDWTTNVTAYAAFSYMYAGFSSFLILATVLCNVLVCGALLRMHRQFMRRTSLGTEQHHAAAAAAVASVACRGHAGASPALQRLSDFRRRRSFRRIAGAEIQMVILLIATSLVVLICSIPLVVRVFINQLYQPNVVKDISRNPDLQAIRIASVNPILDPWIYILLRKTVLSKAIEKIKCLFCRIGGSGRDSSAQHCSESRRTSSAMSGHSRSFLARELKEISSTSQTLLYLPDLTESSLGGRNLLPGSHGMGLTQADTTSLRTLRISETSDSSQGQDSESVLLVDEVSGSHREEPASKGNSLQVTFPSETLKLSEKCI

| Compound | Ki (mouse EP3 α) [µM] | Ki (mouse EP4) [µM] |
| --- | --- | --- |
| COCc1cccc(C[C@H](O)/C=C/[C@H]2[C@H](O)CC(=O)[C@@H]2SCCCSCC(=O)O)c1 [Example 2, 11 α, 15 α-dihydroxy-9-oxo-16-(3-methoxymethylphenyl)-17,18,19,20-tetranor-3,7-dithiaprost-13E-enoic acid] | 1.2 | 0.0097 |
| C=CCOCc1cccc(CC(O)/C=C/[C@H]2[C@H](O)CC(=O)[C@@H]2SCCCSCC(=O)O)c1 (single isomer, unassigned) [Example 2(lll), 11 α, 15-dihydroxy-9-oxo-16-[3-(2-propenyloxymethyl)phenyl]-17,18,19,20-tetranor-3,7-dithiaprost-13E-enoic acid] | 6.2 | 0.0014 |
| O=C(O)CSCCCS[C@H]1C(=O)C[C@@H](O)[C@@H]1/C=C/C(O)Cc1cccc(-c2ccccc2)c1 (single isomer, unassigned) [Example 2(r), 11 α, 15-dihydroxy-9-oxo-16-(biphenyl-3-yl)-17,18,19,20-tetranor-3,7-dithiaprost-13E-enoic acid] | 0.97 | 0.001 |
| COc1cccc(CC(O)/C=C/[C@H]2[C@H](O)CC(=O)[C@@H]2SCCCSCC(=O)O)c1 (single isomer, unassigned) [Example 2(f), 11 α, 15-dihydroxy-9-oxo-16-(3-methoxyphenyl)-17,18,19,20-tetranor-3,7-dithiaprost-13E-enoic acid] | 0.51 | 0.0099 |
| O=C(O)CSCCCS[C@H]1C(=O)C[C@@H](O)[C@@H]1/C=C/C(O)Cc1cccc(CCF)c1 (single isomer, unassigned) [Example 2(tt), 11 α, 15-dihydroxy-9-oxo-16-[3-(2-fluoroethyl)phenyl]-17,18,19,20-tetranor-3,7-dithiaprost-13E-enoic acid] | 0.9 | 0.0065 |
| O=C(O)CSCCCS[C@H]1C(=O)C[C@@H](O)[C@@H]1/C=C/C(O)Cc1cccc(-c2ccco2)c1 (single isomer, unassigned) [Example 2(ii), 11 α, 15-dihydroxy-9-oxo-16-[3-(2-furyl)phenyl]-17,18,19,20-tetranor-3,7-dithiaprost-13E-enoic acid] | 0.25 | 0.0028 |
| O=C(O)CSCCCS[C@H]1C(=O)C[C@@H](O)[C@@H]1/C=C/C(O)Cc1cccc(C#Cc2ccccc2)c1 (single isomer, unassigned) [Example 2(bbb), 11 α, 15-dihydroxy-9-oxo-16-(3-phenylethynylphenyl)-17,18,19,20-tetranor-3,7-dithiaprost-13E-enoic acid] | 0.23 | 0.0003 |
| O=C(O)CSCCCS[C@H]1C(=O)C[C@@H](O)[C@@H]1/C=C/C(O)Cc1cccc(COC2CCCCC2)c1 (single isomer, unassigned) [Example 2(mmm), 11 α, 15-dihydroxy-9-oxo-16-(3-cyclohexyloxymethylphenyl)-17,18,19,20-tetranor-3,7-dithiaprost-13E-enoic acid] | > 10 | 0.04 |
| O=C(O)CSCCCS[C@H]1C(=O)C[C@@H](O)[C@@H]1/C=C/C(O)Cc1cccc(COc2ccccc2)c1 (single isomer, unassigned) [Example 2(rr), 11 α, 15-dihydroxy-9-oxo-16-(3-phenyloxymethylphenyl)-17,18,19,20-tetranor-3,7-dithiaprost-13E-enoic acid] | 1.9 | 0.0042 |
| COc1ccc(CC(O)/C=C/[C@H]2[C@H](O)CC(=O)[C@@H]2SCCCSCC(=O)O)cc1Cl (single isomer, unassigned) [Example 2(l), 11 α, 15-dihydroxy-9-oxo-16-(4-methoxy-3-chlorophenyl)-17,18,19,20-tetranor-3,7-dithiaprost-13E-enoic acid] | 2.2 | 0.011 |
